The conditions of data set [1]: advanced ACC population; cited from earlier work.
For data set [2], the system named is NOTCH-mutated advanced ACC. Conditions: 77 patients, cited from earlier work.
For data set [3], the system named is myeloma cell lines. Also noted: method as in PMID 21159606. Conditions: cited from earlier work.
For data set [4], the system named is advanced solid tumors, adenoid cystic carcinoma (ACC). Description: Antitumor efficacy and survival (RECIST v1.1 response, CBR, PFS, OS). It counts as in vivo, human. From the text:
The study enrolled adults with histologically confirmed, locally advanced and/or metastatic solid tumors who had progressed on at least one line of prior systemic therapy (except for ACC) and relapsed/refractory T-ALL/LBL for whom no standard therapy was available. In dose escalation, participants with solid tumors with known or frequent Notch pathway–activating mutations were eligible (breast cancer, gastrointestinal tumors, hepatocellular carcinoma, osteosarcoma, malignant glomus tumor, and ACC), while the confirmatory cohort planned to enroll participants with selected tumor types (including T-ALL/LBL) and confirmed Notch pathway activation. Key eligibility criteria included patients ≥18 years of age with evaluable disease, Eastern Cooperative Oncology Group (ECOG) performance status 0–1, able to swallow capsules, and adequate organ function. Participants were excluded if they had clinically significant cardiac disease or thromboembolic events within the preceding 6 months, and drugs prolonging the QTc were avoided. A complete list of eligibility criteria is outlined in the Supplementary Materials and Methods.
Safety was assessed via monitoring of DLTs during the first treatment cycle, and of AEs, physical exam, and clinical lab results (hematology, coagulation, blood chemistry, urinalysis, and cardiac markers) throughout the study (Supplementary Table S1). 12-lead electrocardiograms and Holter safety monitoring with periodic cardiac imaging was employed. Efficacy assessments used RECIST v1.1 applied to CT/MRI scans performed at screening and every 8 weeks; or evaluated complete remission with complete hematologic recovery by National Comprehensive Cancer Network guideline criteria for T-ALL/T-LBL. Adherence to study drug administration was evaluated using both patient diaries and capsule counts.
The primary endpoint for dose escalation was the number of patients experiencing DLT during the first 28-day cycle of CB-103 and for the confirmatory phase, the incidence rate, severity, and relationship of AEs to CB-103. Secondary endpoints included assessment of clinical benefit rate [CBR; defined as achieving complete and/or partial response and/or stable disease (SD) at prespecified benchmarks], duration of response, progression-free survival (PFS) and overall survival (OS), and plasma pharmacokinetics.
The objective of the BLRM design ([10]) was to determine the MTD defined as the highest dose with less than 25% risk of the true DLT rate being above 33%. The MTD was considered reached if one of the following criteria was fulfilled: (i) if the posterior probability of the true DLT rate in the target interval (16%–33%) of the MTD was >50%, and (ii) at least 6 patients were treated at the MTD. Under this model, and accounting for dropouts and some additional patients enrolled to each cohort, approximately 55 patients were anticipated to enroll in dose escalation and approximately 45 patients in the confirmatory phase. Data were reported using 95% confidence intervals (CI) and survival endpoints (PFS, OS) are reported from the time of first treatment to the first of progression or death summarized by Kaplan–Meier estimates. All statistical analyses were analyzed using SAS v9.4 software.

Data set [5] is described as follows: Phase I/II safety and tolerability: DLTs and treatment-related adverse events (CTCAE v4.03). It counts as in vivo. The settings on record: added to CB-103; one patient. The source says:
The study was an open-label, nonrandomized, phase I/II dose-escalation study with planned expansion cohorts. […] Part B was a potential expansion phase at the MTD/RP2D to determine preliminary evidence of antitumor activity and to confirm safety among patients stratified by preselected cancer indications.
Part A was based on a two-parameter Bayesian logistic regression model (BLRM) to investigate safety and tolerability of sequentially enrolled dose cohorts of 3–6 patients. The first 2 participants of each cohort were enrolled in a staggered approach with at least 1 day apart between first dosing.
12-lead electrocardiograms and Holter safety monitoring with periodic cardiac imaging was employed. Efficacy assessments used RECIST v1.1 applied to CT/MRI scans performed at screening and every 8 weeks; or evaluated complete remission with complete hematologic recovery by National Comprehensive Cancer Network guideline criteria for T-ALL/T-LBL. Adherence to study drug administration was evaluated using both patient diaries and capsule counts.
Secondary endpoints included assessment of clinical benefit rate [CBR; defined as achieving complete and/or partial response and/or stable disease (SD) at prespecified benchmarks], duration of response, progression-free survival (PFS) and overall survival (OS), and plasma pharmacokinetics.
The SS was the primary population for all safety and efficacy analyses, except for determination of dose-DLT relationship.
Under this model, and accounting for dropouts and some additional patients enrolled to each cohort, approximately 55 patients were anticipated to enroll in dose escalation and approximately 45 patients in the confirmatory phase. […] All statistical analyses were analyzed using SAS v9.4 software.

On to `CNC(=O)c1ccccc1Sc1ccc2c(/C=C/c3ccccn3)n[nH]c2c1` [axitinib], for which the “Discontinuation rates for toxicity” value in data set [1] was at least 20%.
With `CN1C(=O)[C@@H](NC(=O)[C@H](CCC(F)(F)F)[C@H](CCC(F)(F)F)C(N)=O)N=C(c2ccccc2)c2ccccc21` [AL101], the Disease control rate in data set [2] (benchmark not reported) was 69%. In data set [2], the Partial response rate is reported as 12% and the “Patients exhibiting SD” value was 57%.
Turning to `CN(C)CC[C@H](CSc1ccccc1)Nc1ccc(S(=O)(=O)NC(=O)c2ccc(N3CCN(Cc4ccccc4-c4ccc(Cl)cc4)CC3)cc2)cc1[N+](=O)[O-]` [ABT-737], the “Effect of combining with a GSI” value in data set [3] was “synergism”.
For the compound `CC1(C)CCC(CN2CCN(c3ccc(C(=O)NS(=O)(=O)c4ccc(NCC5CCOCC5)c([N+](=O)[O-])c4)c(Oc4cnc5[nH]ccc5c4)c3)CC2)=C(c2ccc(Cl)cc2)C1` [Venetoclax, reference compound], the “Effect of off-label addition to CB-103 after first progression” value in data set [4] (1 patient with NOTCH1-activating metastatic ACC and tumor BCL2 overexpression) was “additional tumor growth stabilization”. Besides, the “Further disease stabilization, additional time” value in data set [4] (off-label, added to CB-103 upon signs of disease progression, one patient, NOTCH1-activated metastatic ACC, BCL2 overexpression) came to 3.5 months. In data set [5], the Tolerance in combination result is on record as “good tolerance”.

The values are drawn from publication PMC10501326, “A Phase I Study of the Pan-Notch Inhibitor CB-103 for Patients with Advanced Adenoid Cystic Carcinoma and Other Tumors” (Cancer Research Communications, 2023).
